One assay has as its target T1, BTK (C481S) (Homo sapiens, UniProt Q06187, C481S).
T1 construct: purchased SignalChem B10-12CH
As to the kind of experiment: Kinase assay of BTK (C481S), [33P]-ATP filter-binding, Reaction Biology Corporation. The following applies: 6 nM BTK (C481S), 0.2 mg/ml pEY substrate, 10 μM ATP, 20 min preincubation, 120 min reaction at room temperature. Format: biochemical. The method, then: The kinase activity of BTK (C481S) was assayed at Reaction Biology Corporation. The substrate in the BTK (C481S) reaction, pEY (poly[Glu:Tyr] (4:1)) (Sigma, Cat. #P7244-250MG), was prepared in fresh reaction buffer (20 mM Hepes (pH 7.5), 10 mM MgCl2, 1 mM EGTA, 0.02% Brij35, 0.02 mg/mi BSA, 0.1 mM Na3VO4, 2 mM DTT, 1% DMSO). BTK(C481S) (SignalChem, Cat. #B10-12CH) was delivered into the substrate solution and mixed gently. The final concentrations of BTK (C481S) and the substrate in the reaction mixture were 6 nM and 0.2 mg/ml, respectively. Compounds were tested in 10-point concentration/response mode with 3-fold serial dilution steps starting at 1 μM.
Compounds in 100% DMSO were delivered into the kinase reaction mixture by acoustic liquid delivery technology (Echo550; nanoliter range) and incubated for 20 min at room temperature. 10 μM [^33P]-ATP (ATP: Sigma, Cat #: A7699; [^33P]-ATP: Hartmann Analytic, Cat #: SCF-301-12) was delivered into the reaction mixture to initiate the reaction. The mixture was incubated for 120 min at room temperature. Radioactivity was detected utilizing a proprietary filter-binding method. Kinase activity data were expressed as the percent remaining kinase activity in test samples compared to vehicle (DMSO) reactions. IC50 values were obtained using GraphPad Prism software.
Select compounds prepared as described above were assayed according to the biological procedures described herein.

Another assay has as its system OCI-LY10 cells. Put plainly: Cell proliferation assay (MTS) in OCI-LY10 cells. Format: cell-based. The conditions noted are these: Homo sapiens; inhibition of OCI-LY10 cells proliferation, 72 h incubation, MTS, absorbance at 490 nm; read-out: OCI-LY10 IC50. A digest of the protocol: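 BTK-dependent OCI-LY10 proliferation: cells seeded at 10000/well, preincubated 4 h, then compound exposure 72 h at 37° C., 5% CO2. MTS added for 2 h and absorbance read at 490 nm; IC50 derived from the concentration-response.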

The structures appear in SMILES notation.

T1 sequence (Q06187 whole entry C481S): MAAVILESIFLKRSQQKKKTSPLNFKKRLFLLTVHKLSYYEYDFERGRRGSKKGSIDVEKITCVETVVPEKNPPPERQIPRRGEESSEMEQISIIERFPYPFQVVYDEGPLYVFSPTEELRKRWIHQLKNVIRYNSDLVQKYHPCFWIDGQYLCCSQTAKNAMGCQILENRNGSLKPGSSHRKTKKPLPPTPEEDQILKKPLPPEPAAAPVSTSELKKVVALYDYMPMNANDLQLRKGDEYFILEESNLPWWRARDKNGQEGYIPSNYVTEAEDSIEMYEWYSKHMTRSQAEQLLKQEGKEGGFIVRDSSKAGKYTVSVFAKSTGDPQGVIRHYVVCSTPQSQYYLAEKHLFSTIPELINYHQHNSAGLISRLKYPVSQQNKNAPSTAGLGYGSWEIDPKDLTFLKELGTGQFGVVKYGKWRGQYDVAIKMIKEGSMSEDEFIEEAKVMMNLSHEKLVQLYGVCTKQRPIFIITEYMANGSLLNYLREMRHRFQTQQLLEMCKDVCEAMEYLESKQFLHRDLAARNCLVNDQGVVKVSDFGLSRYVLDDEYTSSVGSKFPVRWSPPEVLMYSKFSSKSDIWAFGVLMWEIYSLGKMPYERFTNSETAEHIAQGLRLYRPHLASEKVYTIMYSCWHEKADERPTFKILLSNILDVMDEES

As usually defined, the IC50 is the concentration that inhibits the measured activity by half. For `COc1ccc(F)cc1C(=O)NCc1ccc(-c2nn(C3CCCC3)c3c(=O)[nH]nc(N)c23)cc1` [Example 11, N-(4-(4-amino-1-cyclopentyl-7-oxo-6,7-dihydro-1H-pyrazolo[3,4-d]pyridazin-3-yl)benzyl)-5-fluoro-2-methoxybenzamide], the half-inhibitory concentration (IC50) at BTK (C481S) was determined as 0.5 nM; in the assay on OCI-LY10 cells, 1 nM. For `COc1ccc(F)cc1C(=O)NCc1ccc(-n2cc(C3CCCC3)c3c(=O)[nH]nc(N)c32)cc1` [Example 8, N-(4-(7-amino-3-cyclopentyl-4-oxo-4,5-dihydro-1H-pyrrolo[2,3-d]pyridazin-1-yl)benzyl)-5-fluoro-2-methoxybenzamide], the results for the IC50 on BTK (C481S) and in the assay with OCI-LY10 cells were 0.45 nM and 1 nM, respectively. The corresponding values for `COc1ccccc1C(=O)NCc1ccc(-n2nc(C3CCCC3)c3c(=O)[nH]nc(N)c32)cc1` [Example 2, N-(4-(7-amino-3-cyclopentyl-4-oxo-4,5-dihydro-1H-pyrazolo[3,4-d]pyridazin-1-yl)benzyl)-2-methoxybenzamide] are 3.3 nM and 34 nM.

For `COc1ccc(F)cc1C(=O)NCc1ccc(-c2cn(C3CCCC3)c3c(=O)[nH]nc(N)c23)cc1` [Example 17, N-(4-(4-amino-1-cyclopentyl-7-oxo-6,7-dihydro-1H-pyrrolo[2,3-d]pyridazin-3-yl)benzyl)-5-fluoro-2-methoxybenzamide], the values for the IC50 on BTK (C481S) and in the assay on OCI-LY10 cells were 0.5 nM and 1 nM, respectively.

Compound `COc1ccccc1C(=O)NCc1ccc(-c2nc(C3CCCC3)n3ncnc(N)c23)cc1` [Example 6, N-(4-(4-amino-7-cyclopentylimidazo[5,1-f][1,2,4]triazin-5-yl)benzyl)-2-methoxybenzamide] gave a half-inhibitory concentration (IC50) on BTK (C481S) of 7.8 nM. For the compound `COc1ccccc1C(=O)NCc1ccc(-c2nn(C3CCCC3)c3c(=O)[nH]nc(N)c23)cc1` [Example 5, N-(4-(4-amino-1-cyclopentyl-7-oxo-6,7-dihydro-1H-pyrazolo[3,4-d]pyridazin-3-yl)benzyl)-2-methoxybenzamide], the values for the half-inhibitory concentration (IC50) on BTK (C481S) and in the assay on OCI-LY10 cells were 8 nM and 68 nM, respectively. For `COc1ccccc1C(=O)NCc1ccc(-c2cn(C3CCCC3)c3c(=O)[nH]nc(N)c23)cc1` [Example 4, N-(4-(4-amino-1-cyclopentyl-7-oxo-6,7-dihydro-1H-pyrrolo[2,3-d]pyridazin-3-yl)benzyl)-2-methoxybenzamide], in that order: 6.5 nM and 69 nM. In the case of `COc1ccc(F)cc1C(=O)NCc1ccc(-c2nn([C@H]3CCC[C@H]3F)c3c(=O)[nH]nc(N)c23)cc1` [Example 81, N-(4-(4-amino-1-((1S,2R)-2-fluorocyclopentyl)-7-oxo-6,7-dihydro-1H-pyrazolo[3,4-d]pyridazin-3-yl)benzyl)-5-fluoro-2-methoxybenzamide], the IC50 on BTK (C481S) was found to be 0.91 nM; in the assay on OCI-LY10 cells, 1 nM.

With `COc1ccccc1C(=O)NCc1ccc(-n2cc(C3CCCC3)c3c(=O)[nH]nc(N)c32)cc1` [Example 1, N-(4-(7-amino-3-cyclopentyl-4-oxo-4,5-dihydro-1H-pyrrolo[2,3-d]pyridazin-1-yl)benzyl)-2-methoxybenzamide], the IC50 at BTK (C481S) came out at 5 nM; in the assay on OCI-LY10 cells, 28 nM. Compound `COc1ccccc1C(=O)NCc1ccc(-c2nc(C3CCCC3)n3ccnc(N)c23)cc1` [Example 7, N-(4-(8-amino-3-cyclopentylimidazo[1,5-a]pyrazin-1-yl)benzyl)-2-methoxybenzamide] displayed an IC50 at BTK (C481S) of 3 nM.

These data come from US20230145305A1, “COMPOUNDS USEFUL AS KINASE INHIBITORS” (Fochon Biosciences, Ltd., priority 2020, published 2023).
